This experiment concerns the target CDK7/CycH/MNAT1 (Homo sapiens (Human), UniProt P50613). Briefly: Biochemical Assay for CDK7 (TR-FRET kinase assay). To be noted: 60 min pre-incubation with kinase, 1 mM ATP. An outline of the steps:
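TR-FRET with 5 nM CDK7/CycH/MNAT1, compound pre-incubated 60 min at room temperature, then 100 nM ULight-MBP and 1 mM ATP for 60 min; stopped with EDTA, Eu anti-phospho-MBP read at 665/615 nm. 1% DMSO; IC50 from sigmoidal fit. Time-dependence tested with 20, 60, 180 min pre-incubation.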
A general note: In TR-FRET formats the signal depends on donor and acceptor labels being close together.

The term inhibition denotes how much of the control response was suppressed. Low values mean a response near the control, high ones a response far below the control. By IC50 is commonly meant the point on the concentration scale where inhibition reaches its midpoint. Low values mean greater potency, high ones weaker potency.

SMILES strings stand for the structures.

CDK7/CycH/MNAT1, sequence (P50613 whole entry): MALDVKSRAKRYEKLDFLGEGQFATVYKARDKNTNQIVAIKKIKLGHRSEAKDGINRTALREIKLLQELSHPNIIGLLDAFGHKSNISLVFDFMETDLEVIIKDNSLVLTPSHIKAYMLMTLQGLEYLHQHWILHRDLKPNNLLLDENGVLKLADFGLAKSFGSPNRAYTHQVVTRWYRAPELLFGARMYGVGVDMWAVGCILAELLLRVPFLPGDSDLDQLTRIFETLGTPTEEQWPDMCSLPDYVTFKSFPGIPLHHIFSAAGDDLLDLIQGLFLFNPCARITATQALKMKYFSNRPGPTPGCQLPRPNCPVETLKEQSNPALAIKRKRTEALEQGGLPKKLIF
CDK7/CycH/MNAT1, sequence (P51946 whole entry partner): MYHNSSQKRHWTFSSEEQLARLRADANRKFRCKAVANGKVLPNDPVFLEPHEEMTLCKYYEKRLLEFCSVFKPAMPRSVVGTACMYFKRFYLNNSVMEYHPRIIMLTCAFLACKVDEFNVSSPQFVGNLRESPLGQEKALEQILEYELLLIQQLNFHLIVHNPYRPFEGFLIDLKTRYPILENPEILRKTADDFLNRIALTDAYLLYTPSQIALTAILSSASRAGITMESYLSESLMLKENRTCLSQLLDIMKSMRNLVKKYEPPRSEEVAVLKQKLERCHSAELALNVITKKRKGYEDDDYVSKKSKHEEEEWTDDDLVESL
CDK7/CycH/MNAT1, sequence (P51948 whole entry partner): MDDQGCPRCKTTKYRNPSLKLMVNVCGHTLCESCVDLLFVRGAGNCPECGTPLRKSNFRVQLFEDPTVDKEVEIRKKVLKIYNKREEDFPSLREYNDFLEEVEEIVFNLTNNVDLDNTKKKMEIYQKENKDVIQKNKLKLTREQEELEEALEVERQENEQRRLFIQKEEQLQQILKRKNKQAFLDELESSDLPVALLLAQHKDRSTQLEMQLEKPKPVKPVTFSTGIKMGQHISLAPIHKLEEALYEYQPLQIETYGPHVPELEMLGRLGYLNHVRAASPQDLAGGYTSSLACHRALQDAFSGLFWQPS

`CC(C)(C(=O)Nc1cc(C2CC2)[nH]n1)c1cccc(-c2ccc(NC(=O)/C=C/CN3CCCC3)nc2)c1` [Compound 95, (E)-N-(5-(3-(1-((5-cyclopropyl-1H-pyrazol-3-yl)amino)-2-methyl-1-oxopropan-2-yl)phenyl)pyridin-2-yl)-4-(pyrrolidin-1-yl)but-2-enamide] gave an IC50 above 100 nM. 10 µM produced 71% inhibition (10 μM compound).

The values above are taken from US11174232B2, “Substituted heterocyclyl derivatives as CDK inhibitors” (Aurigene Discovery Technologies Limited, priority 2015, dated 2021).
